The record followed here is US10124004B2, “Pyrido[3,4-d]pyrimidine derivative and pharmaceutically acceptable salt thereof” (Teijin Pharma Limited, priority 2015, dated 2018).

Some results are limits rather than exact numbers.

One experiment deals with T1, CDK2/cyclin A2 (Homo sapiens, UniProt P24941).
T1 construct: purchased Carna Biosciences, Inc. QS S Assist CDK2/Cyclin A2_FP Kit
Briefly: Human CDK2/cyclin A2 inhibitory activity (QS S Assist CDK2/Cyclin A2_FP Kit, IMAP fluorescence polarization). Type of experiment: biochemical. The settings on record: Human CDK2/cyclin A2 inhibitory activity; read-out: CDK2 Activity symbol. An outline of the steps:
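Kinase activity read as fluorescence polarization (485/535 nm) after phosphorylated fluorescent substrate binds IMAP reagent (30 min, RT, dark). Enzyme (2.5 ng/well) reacted 60 min at RT with ATP/substrate/metal in HEPES pH 7.4 buffer with Tween 20 and DTT; no-enzyme wells define 0% activity; IC50 by curve fit.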

In a further experiment the target is T2, CDK4/cyclin D3 (Homo sapiens, UniProt P11802).
T2 construct: purchased Carna Biosciences, Inc. QS S Assist CDK4/Cyclin D3_FP Kit
Briefly: Human CDK4/cyclin D3 inhibitory activity (QS S Assist CDK4/Cyclin D3_FP Kit, IMAP fluorescence polarization). The conditions noted are these: Human CDK4/cyclin D3 inhibitory activity; read-out: CDK4 Activity symbol. Type of experiment: biochemical. An outline of the steps:
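Percent inhibition, relative to DMSO with and without enzyme, was curve-fitted to give IC50 from polarization (ex 485, em 535 nm). The 45-min room-temperature reaction used 12.5-25 ng/well enzyme, kit ATP/substrate/metal mix, and HEPES pH 7.4 buffer with Tween20 and DTT, followed by 30-min IMAP binding in the dark.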
In general terms: In fluorescence polarisation assays a small probe gives low polarisation when free and higher when bound to something large.

T2 sequence (P11802 whole entry): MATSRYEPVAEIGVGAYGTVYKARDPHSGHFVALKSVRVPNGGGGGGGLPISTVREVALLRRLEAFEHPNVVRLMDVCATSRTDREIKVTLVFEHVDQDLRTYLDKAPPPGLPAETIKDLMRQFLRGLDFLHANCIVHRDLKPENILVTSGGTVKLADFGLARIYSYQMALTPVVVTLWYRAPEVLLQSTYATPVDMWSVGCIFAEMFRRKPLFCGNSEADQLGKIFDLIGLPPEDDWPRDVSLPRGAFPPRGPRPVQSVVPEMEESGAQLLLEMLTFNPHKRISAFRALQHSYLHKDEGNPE
T2 sequence (P30281 whole entry partner): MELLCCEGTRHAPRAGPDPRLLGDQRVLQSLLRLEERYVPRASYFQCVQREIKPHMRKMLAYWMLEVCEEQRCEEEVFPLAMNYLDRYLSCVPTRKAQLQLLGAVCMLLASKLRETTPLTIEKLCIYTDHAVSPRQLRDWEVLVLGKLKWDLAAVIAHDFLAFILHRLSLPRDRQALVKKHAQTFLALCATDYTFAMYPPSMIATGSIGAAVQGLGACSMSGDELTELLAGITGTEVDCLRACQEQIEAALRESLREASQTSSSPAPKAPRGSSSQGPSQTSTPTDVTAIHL

Take `CC(=O)c1cc2cnc(Nc3ccc(CN4CCNCC4)cn3)nc2c(NC(C)C)n1` [Compound 329]: the IC50 is at least 100 nM at CDK2/cyclin A2 and below 10 nM at CDK4/cyclin D3.
Consider `CC(=O)c1cc2cnc(Nc3ccc(N4CCNCC4)nn3)nc2c(NC2CCOCC2)n1` [Compound 330], for which the IC50 at CDK2/cyclin A2 was at least 100 nM; at CDK4/cyclin D3, below 10 nM.
The matching figures for `CO[C@H](C)c1cc2cnc(Nc3ccc(-c4cccnc4)cn3)nc2c(NC(C)C)n1` [Compound 331]: at least 100 nM and at least 100 nM.
For `CO[C@H](C)c1cc2cnc(Nc3ccc(C4CCCNC4)cn3)nc2c(NC(C)C)n1` (some centres unmarked) [Compound 332] the same measures were at least 100 nM and below 10 nM.
As for `COCC(C)(C)Nc1nc([C@@H](C)O)cc2cnc(Nc3ccc(C4CCCNC4)cn3)nc12` (some centres unmarked) [Compound 333], the IC50 was at least 100 nM at CDK2/cyclin A2 and below 10 nM on CDK4/cyclin D3.
For the compound `CO[C@H](C)c1cc2cnc(Nc3ccc(N4CCC(O)C4)nn3)nc2c(NC(C)C)n1` (some centres unmarked) [Compound 334], the figures for the IC50 at CDK2/cyclin A2 and on CDK4/cyclin D3 were at least 100 nM and 10 to 100 nM, respectively.
For `CO[C@H](C)c1cc2cnc(Nc3ccc(N4CCN(C(=O)CO)CC4)nn3)nc2c(NC(C)C)n1` [Compound 335] the same measures were at least 100 nM and below 10 nM.
As to `CO[C@H](C)c1cc2cnc(Nc3ccc(NC4CCNCC4)nn3)nc2c(NC(C)C)n1` [Compound 336], the IC50 on CDK2/cyclin A2 was at least 100 nM; on CDK4/cyclin D3, below 10 nM.
In the case of `C[C@@H](O)c1nc(NC2CCOCC2)c2nc(Nc3ccc(N4CCNCC4)nn3)ncc2c1Cl` [Compound 337], the IC50 at CDK2/cyclin A2 is at least 100 nM; at CDK4/cyclin D3, below 10 nM.
The matching figures for `C[C@@H](O)c1cc2cnc(Nc3ccc(N4CCNCC4)nn3)nc2c(N[C@H]2CC[C@H](C(=O)O)CC2)n1` [Compound 338]: at least 100 nM and below 10 nM.
On to `CO[C@H](C)c1cc2cnc(Nc3ccc(N4CCNCC4)nn3)nc2c(N[C@H]2CC[C@H](C(=O)O)CC2)n1` [Compound 339], for which the IC50 at CDK2/cyclin A2 is at least 100 nM; at CDK4/cyclin D3 it was 10 to 100 nM.
For `C[C@@H](O)c1cc2cnc(Nc3ccc(N4CCNCC4)nn3)nc2c(N[C@H]2CC[C@H](O)CC2)n1` [Compound 340] the same measures were at least 100 nM and below 10 nM.
For `CO[C@H](C)c1cc2cnc(Nc3ccc(N4CCNCC4)nn3)nc2c(N[C@H]2CC[C@H](O)CC2)n1` [Compound 341] the same measures were at least 100 nM and below 10 nM.
Turning to `C[C@@H](O)c1cc2cnc(Nc3ccc(CN4CCNCC4)cn3)nc2c(N[C@H]2CC[C@H](C(=O)O)CC2)n1` [Compound 342], the values for the IC50 at CDK2/cyclin A2 and on CDK4/cyclin D3 were at least 100 nM and below 10 nM, respectively.
The matching figures for `CO[C@H](C)c1cc2cnc(Nc3ccc(CN4CCNCC4)cn3)nc2c(N[C@H]2CC[C@H](C(=O)O)CC2)n1` [Compound 343]: at least 100 nM and below 10 nM.
For `C[C@@H](O)c1cc2cnc(Nc3ccc(CN4CCNCC4)cn3)nc2c(N[C@H]2CC[C@H](O)CC2)n1` [Compound 344] the same measures were at least 100 nM and below 10 nM.
With `CO[C@H](C)c1cc2cnc(Nc3ccc(CN4CCNCC4)cn3)nc2c(N[C@H]2CC[C@H](O)CC2)n1` [Compound 345], the IC50 was at least 100 nM at CDK2/cyclin A2 and below 10 nM on CDK4/cyclin D3.
For the compound `CC(O)c1cc2cnc(Nc3ccc(N4CCNCC4=O)cn3)nc2c(NC2CCCOC2)n1` (centres unmarked) [Compound 346], the IC50 at CDK2/cyclin A2 was at least 100 nM; at CDK4/cyclin D3, below 10 nM.
For the compound `C[C@@H](O)c1cc2cnc(Nc3ccc(N4CCNCC4=O)cn3)nc2c(N[C@H]2CCCOC2)n1` [Compound 347], the IC50 at CDK2/cyclin A2 is at least 100 nM; on CDK4/cyclin D3, below 10 nM.
The matching figures for `C[C@@H](O)c1cc2cnc(Nc3ccc(N4CCNCC4=O)cn3)nc2c(N[C@@H]2CCOC2)n1` [Compound 348]: at least 100 nM and below 10 nM.
As to `C[C@@H](O)c1cc2cnc(Nc3ccc(N4CCNCC4=O)cn3)nc2c(N[C@H]2CCOC2)n1` [Compound 349], the values for the IC50 at CDK2/cyclin A2 and at CDK4/cyclin D3 were at least 100 nM and 10 to 100 nM, respectively.
In the case of `C[C@@H](O)c1cc2cnc(Nc3ccc(N4CCNCC4=O)cn3)nc2c(NC2CCOCC2)n1` [Compound 350], the values for the IC50 on CDK2/cyclin A2 and on CDK4/cyclin D3 were at least 100 nM and below 10 nM, respectively.
The matching figures for `C[C@@H](O)c1cc2cnc(Nc3ccc(N4CCN(C=O)CC4=O)cn3)nc2c(N[C@@H]2CCCOC2)n1` [Compound 351]: at least 100 nM and below 10 nM.
As to `C[C@@H](O)c1cc2cnc(Nc3ccc(N4CCN(C=O)CC4=O)cn3)nc2c(N[C@H]2CCCOC2)n1` [Compound 352], the IC50 at CDK2/cyclin A2 is at least 100 nM; at CDK4/cyclin D3, below 10 nM.
The matching figures for `C[C@@H](O)c1cc2cnc(Nc3ccc(N4CCN(C=O)CC4=O)cn3)nc2c(N[C@@H]2CCOC2)n1` [Compound 353]: at least 100 nM and below 10 nM.
`C[C@@H](O)c1cc2cnc(Nc3ccc(N4CCN(C=O)CC4=O)cn3)nc2c(N[C@H]2CCOC2)n1` [Compound 354]: the IC50 on CDK2/cyclin A2 is at least 100 nM; on CDK4/cyclin D3 it was 10 to 100 nM.
Take `C[C@@H](O)c1cc2cnc(Nc3ccc(N4CCN(C=O)CC4=O)cn3)nc2c(NC2CCOCC2)n1` [Compound 355]: the IC50 at CDK2/cyclin A2 was at least 100 nM; on CDK4/cyclin D3, below 10 nM.
For `CO[C@H](C)c1cc2cnc(Nc3ccc(N4CCNCC4)nn3)nc2c(NCC2CCOCC2)n1` [Compound 358] the same measures were at least 100 nM and below 10 nM.
For `CO[C@H](C)c1cc2cnc(Nc3ccc(CN4CCNCC4)cn3)nc2c(NCC2CCOCC2)n1` [Compound 360] the same measures were at least 100 nM and below 10 nM.
For `FC(F)c1cc2cnc(Nc3ccc(CN4CCNCC4)cn3)nc2c(NC2CCOCC2)n1` [Compound 364], the results for the IC50 at CDK2/cyclin A2 and on CDK4/cyclin D3 were 10 to 100 nM and below 10 nM, respectively.
The matching figures for `FC(F)c1cc2cnc(Nc3ccc(N4CCNCC4)nn3)nc2c(NC2CCOCC2)n1` [Compound 365]: at least 100 nM and below 10 nM.
The matching figures for `CN(C)CCOc1ccc(Nc2ncc3cc(C(F)F)nc(NC4CCCOC4)c3n2)nc1` (centres unmarked) [Compound 366]: at least 100 nM and below 10 nM.
On to `C[C@@H](O)c1nc(N[C@H]2CCCOC2)c2nc(Nc3ccc(N4CCNCC4)nn3)ncc2c1Cl` [Compound 367], for which the figures for the IC50 on CDK2/cyclin A2 and on CDK4/cyclin D3 were at least 100 nM and below 10 nM, respectively.
The matching figures for `C[C@@H](O)c1nc(N[C@H]2CC[C@H](O)CC2)c2nc(Nc3ccc(N4CCNCC4)nn3)ncc2c1Cl` [Compound 368]: at least 100 nM and below 10 nM.
On to `C[C@@H](O)c1nc(N[C@H]2CCCOC2)c2nc(Nc3ccc(CN4CCNCC4)cn3)ncc2c1Cl` [Compound 369], for which the IC50 is at least 100 nM at CDK2/cyclin A2 and below 10 nM at CDK4/cyclin D3.
`C[C@@H](O)c1nc(N[C@H]2CC[C@H](O)CC2)c2nc(Nc3ccc(CN4CCNCC4)cn3)ncc2c1Cl` [Compound 370]: the IC50 on CDK2/cyclin A2 was at least 100 nM; on CDK4/cyclin D3, below 10 nM.
The matching figures for `CO[C@H](C)c1cc2cnc(Nc3ccc(N4CCNC[C@@H]4C)nn3)nc2c(NC(C)C)n1` [Compound 371]: at least 100 nM and below 10 nM.
In the case of `CO[C@H](C)c1cc2cnc(Nc3ccc(N4CCNC[C@H]4C)nn3)nc2c(NC(C)C)n1` [Compound 372], the IC50 is at least 100 nM at CDK2/cyclin A2 and below 10 nM on CDK4/cyclin D3.
For `COCC(C)(C)Nc1nc([C@@H](C)O)cc2cnc(Nc3cnc(N4CCNCC4)cn3)nc12` [Compound 373] the same measures were at least 100 nM and below 10 nM.
Regarding `CO[C@H](C)c1cc2cnc(Nc3ccc(N4CCNC5(CC5)C4)nn3)nc2c(N[C@H]2CCCOC2)n1` [Compound 376], the IC50 at CDK2/cyclin A2 is at least 100 nM; on CDK4/cyclin D3 it was below 10 nM.
For `CO[C@H](C)c1cc2cnc(Nc3ccc(CN4CCNC5(CC5)C4)cn3)nc2c(N[C@H]2CCCOC2)n1` [Compound 378] the same measures were at least 100 nM and below 10 nM.
`CC(C)Nc1nc([C@@H](C)O)cc2cnc(Nc3ccc(N4CCNC5(CC5)C4)nn3)nc12` [Compound 379]: the IC50 on CDK2/cyclin A2 is at least 100 nM; at CDK4/cyclin D3 it was below 10 nM.
On to `FC(F)c1cc2cnc(Nc3ccc(CN4CCNCC4)cn3)nc2c(N[C@H]2CCCOC2)n1` [Compound 380], for which the values for the IC50 at CDK2/cyclin A2 and at CDK4/cyclin D3 were at least 100 nM and below 10 nM, respectively.
For `FC(F)c1cc2cnc(Nc3ccc(N4CCNCC4)nn3)nc2c(N[C@H]2CCCOC2)n1` [Compound 381] the same measures were at least 100 nM and below 10 nM.
For `CN(C)CCOc1ccc(Nc2ncc3cc(C(F)F)nc(N[C@H]4CCCOC4)c3n2)nc1` [Compound 382] the same measures were at least 100 nM and below 10 nM.
Turning to `O=C(O)[C@H]1CC[C@H](Nc2nc(C(F)F)cc3cnc(Nc4ccc(CN5CCNCC5)cn4)nc23)CC1` [Compound 383], the IC50 is at least 100 nM on CDK2/cyclin A2 and 10 to 100 nM at CDK4/cyclin D3.
Turning to `O=C(O)[C@H]1CC[C@H](Nc2nc(C(F)F)cc3cnc(Nc4ccc(N5CCNCC5)nn4)nc23)CC1` [Compound 384], the IC50 is at least 100 nM at CDK2/cyclin A2 and 10 to 100 nM on CDK4/cyclin D3.
For `CN(C)CCOc1ccc(Nc2ncc3cc(C(F)F)nc(N[C@H]4CC[C@H](C(=O)O)CC4)c3n2)nc1` [Compound 385], the IC50 is at least 100 nM at CDK2/cyclin A2 and below 10 nM at CDK4/cyclin D3.
The matching figures for `O[C@H]1CC[C@H](Nc2nc(C(F)F)cc3cnc(Nc4ccc(CN5CCNCC5)cn4)nc23)CC1` [Compound 386]: at least 100 nM and below 10 nM.
